Values joined by “and” are separate entries in the source; they are usually repeats but may differ in a detail not shown here. Equal entries are not always repeated.
Assays:
[1] = target: T1, CRBN (Homo sapiens, UniProt Q96SW2); experiment: CRBN fluorescence polarization (FP) displacement assay; assay type: binding; design: key: % activity normalized to DMSO (0) and CC-220 (100) controls
T1 construct: 6XHis (N)
Method: The assay cocktail was prepared by combining 6XHis-CRBN-DDB1 protein (200 nM) and Cy5-O-Len probe (30 nM) in 20 mM HEPES pH 7, 150 mM NaCl, 0.005% Tween-20 assay buffer. […] Then 20 μL of the assay cocktail was dispensed to wells of the assay plate with a Multidrop Combi Reagent Dispenser (Thermo Fisher Scientific, USA). The plates were incubated in the dark for 1 h at room temperature and then read on an Envision plate reader (Perkin Elmer, USA). Raw intensity values for each compound at each concentration were normalized to obtain % activity using the following equation: 100×[(mean(negctrl)–compound)/(mean (negctrl)–mean (posctrl))], and then pooled from replicate experiments prior to fitting. Here, negctrl and posctrl refer to the negative (DMSO) and positive controls (CC-220) on each plate. Dose-response curves were fit to the Hill equation using the GraphPad Prism (version 10).

[2] = system: MOLM-13 cells; experiment: Annexin-V staining for apoptosis, wild type MOLM-13; assay type: cell-based, human; settings: for total apoptosis, flow cytometry: MOLM-13; for Late apoptosis, flow cytometry / Early apoptosis, flow cytometry: WT
Method: (§1) Wild type and CRBN^−/− MOLM-13 cells were grown in 12-well plates (TPP, Techno Plastic Products AG) with 500,000 cells per well in 2 ml total media volume. Cells were treated with 1 μl/ml DMSO or 1 μM compound in triplicate, and incubated for 24 or 72 h at 37 °C. To prepare samples, this buffer was used: 10 mM HEPES, 0.14 M NaCl, 2.5 mM CaCl2 pH 7.4, 2% v/v FBS in UltraPure water (Invitrogen). After incubation, samples were collected in 5-ml tubes for flow cytometry (Falcon). Single-stain controls consisted of ~150 μl of multiple samples combined. Wells were washed with 1 ml of buffer that was added to the corresponding sample tube. Cells were centrifuged at 500×g for 5 min at 4 °C to form a pellet. Supernatant was decanted and cells were washed again with 3 ml of buffer, then centrifuged. After decanting the supernatant, 3 μl of APC-conjugated anti-Annexin-V antibody (BioLegend) was added to each tube in the residual buffer left behind. Samples were mixed by vortex and incubated at room temperature in the dark for 20 min. Samples were then washed and centrifuged a final time, decanting the supernatant and blotting the tubes to remove residual buffer. 50 μl of buffer with DAPI was added to all appropriate samples and mixed, then analyzed by flow cytometry.
(§2) Supplementary Fig. 13: Gating for Annexin V flow cytometry analysis. Total cells were gated to remove cell debris, followed by single cell gating on the FSC-A/FSC-H diagonal. Within the single […]
(§3) Live cells are negative for both fluorescent markers, DAPI positive/APC negative cells are necrotic, APC positive/DAPI negative cells are still alive but in the early stages of apoptosis, and double positive cells are dead via apoptosis. Percentages of early and late apoptosis were plotted in supplementary figures 4 and 5.
(§4) (1 picture or pasted object on this page, not shown here)

[3] = target: T2, IKZF1 (Homo sapiens, UniProt Q13422+Q96SW2); experiment: IKZF1 HiBiT live-cell kinetic degradation assay (Jurkat cells); assay type: cell-based
T2 construct: engineered by CRISPR/Cas9 to express endogenous IKZF1 (Jurkat cells) with a HiBiT tag
Text: To measure cellular protein levels, we used cell lines that have been engineered by CRISPR/Cas9 to express endogenous CK1α (HEK293 cells) or IKZF1 (Jurkat cells) with a HiBiT tag, which when coupled with LgBiT expression forms NanoBiT, a bioluminescent protein that can be used for kinetic studies of protein degradation. […] Cell viability was also monitored with CellTiter Glo 2.0 (Promega) at the completion of the experiment to ensure that loss of protein was not a consequence of a loss of cell viability.
IKZF1-HiBiT Jurkat LgBiT stable cells were seeded at 60,000 cells/well in 50% growth media/50% CO2 independent medium supplemented with 10% FBS and 1× Endurazine substrate. […] A dose–response curve was generated by performing 3-fold dilutions of each compound including a DMSO-only control in growth media. For live cell kinetic degradation assays, diluted compounds were added to CK1α and β-catenin plates and placed in a GloMax Discover (Promega, Cat. #GM3000) preheated to 37 °C or added to IKZF1 plates and placed in a CLARIOstar Plus (BMG LABTECH) preheated to 37 °C.
Relative protein level was determined based on normalization to the DMSO control and reported at Fractional RLUs. Degradation rate and degradation maximums were calculated from Fractional RLUs as previously described[38] using GraphPad Prism software. β-catenin stabilization time of onset for each concentration curve was calculated in GraphPad Prism by fitting an unconstrained plateau followed by one phase association model using the equation below (Y = IF(X < X0, Y0,Y0+(Plateau−Y0)*(1−exp(−K*(X−X0))))). The parameter, X0 was used as time of onset for each compound concentration.

[4] = system: CRBN−/− MOLM-13 cells; experiment: Annexin-V staining for apoptosis, CRBN−/− MOLM-13; assay type: cell-based, human; settings: for Late apoptosis, flow cytometry / Early apoptosis, flow cytometry: CRBN-/-; for total apoptosis, flow cytometry: MOLM-13 CRBN-/-
Method: as §1, §2, §3, §4

T2 sequence (Q13422 whole entry): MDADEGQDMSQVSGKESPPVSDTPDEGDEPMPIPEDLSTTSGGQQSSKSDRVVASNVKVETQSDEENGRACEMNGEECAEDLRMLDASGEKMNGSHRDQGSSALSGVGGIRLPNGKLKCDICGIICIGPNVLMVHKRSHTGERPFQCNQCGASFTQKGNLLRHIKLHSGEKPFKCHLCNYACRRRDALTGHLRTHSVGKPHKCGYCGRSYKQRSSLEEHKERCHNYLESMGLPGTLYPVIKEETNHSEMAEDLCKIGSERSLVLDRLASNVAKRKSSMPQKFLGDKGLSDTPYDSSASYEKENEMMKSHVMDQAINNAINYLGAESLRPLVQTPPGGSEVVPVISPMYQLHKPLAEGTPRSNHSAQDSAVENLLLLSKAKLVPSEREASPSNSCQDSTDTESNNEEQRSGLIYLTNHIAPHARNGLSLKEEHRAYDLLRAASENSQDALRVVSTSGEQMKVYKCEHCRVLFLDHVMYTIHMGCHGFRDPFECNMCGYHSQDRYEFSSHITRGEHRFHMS
T2 sequence (Q96SW2 whole entry): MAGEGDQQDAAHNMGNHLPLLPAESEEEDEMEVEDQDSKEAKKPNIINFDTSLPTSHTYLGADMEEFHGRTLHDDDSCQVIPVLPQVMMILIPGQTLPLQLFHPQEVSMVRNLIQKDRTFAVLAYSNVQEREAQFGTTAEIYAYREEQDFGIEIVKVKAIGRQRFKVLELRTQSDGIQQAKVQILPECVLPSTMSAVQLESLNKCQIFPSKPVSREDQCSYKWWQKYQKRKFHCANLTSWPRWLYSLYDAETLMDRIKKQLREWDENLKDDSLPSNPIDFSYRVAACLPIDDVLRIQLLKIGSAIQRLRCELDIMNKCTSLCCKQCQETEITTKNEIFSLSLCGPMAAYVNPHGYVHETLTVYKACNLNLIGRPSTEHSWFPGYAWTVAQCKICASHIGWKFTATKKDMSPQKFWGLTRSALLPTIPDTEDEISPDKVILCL
T2 sequence (Q16531 whole entry partner): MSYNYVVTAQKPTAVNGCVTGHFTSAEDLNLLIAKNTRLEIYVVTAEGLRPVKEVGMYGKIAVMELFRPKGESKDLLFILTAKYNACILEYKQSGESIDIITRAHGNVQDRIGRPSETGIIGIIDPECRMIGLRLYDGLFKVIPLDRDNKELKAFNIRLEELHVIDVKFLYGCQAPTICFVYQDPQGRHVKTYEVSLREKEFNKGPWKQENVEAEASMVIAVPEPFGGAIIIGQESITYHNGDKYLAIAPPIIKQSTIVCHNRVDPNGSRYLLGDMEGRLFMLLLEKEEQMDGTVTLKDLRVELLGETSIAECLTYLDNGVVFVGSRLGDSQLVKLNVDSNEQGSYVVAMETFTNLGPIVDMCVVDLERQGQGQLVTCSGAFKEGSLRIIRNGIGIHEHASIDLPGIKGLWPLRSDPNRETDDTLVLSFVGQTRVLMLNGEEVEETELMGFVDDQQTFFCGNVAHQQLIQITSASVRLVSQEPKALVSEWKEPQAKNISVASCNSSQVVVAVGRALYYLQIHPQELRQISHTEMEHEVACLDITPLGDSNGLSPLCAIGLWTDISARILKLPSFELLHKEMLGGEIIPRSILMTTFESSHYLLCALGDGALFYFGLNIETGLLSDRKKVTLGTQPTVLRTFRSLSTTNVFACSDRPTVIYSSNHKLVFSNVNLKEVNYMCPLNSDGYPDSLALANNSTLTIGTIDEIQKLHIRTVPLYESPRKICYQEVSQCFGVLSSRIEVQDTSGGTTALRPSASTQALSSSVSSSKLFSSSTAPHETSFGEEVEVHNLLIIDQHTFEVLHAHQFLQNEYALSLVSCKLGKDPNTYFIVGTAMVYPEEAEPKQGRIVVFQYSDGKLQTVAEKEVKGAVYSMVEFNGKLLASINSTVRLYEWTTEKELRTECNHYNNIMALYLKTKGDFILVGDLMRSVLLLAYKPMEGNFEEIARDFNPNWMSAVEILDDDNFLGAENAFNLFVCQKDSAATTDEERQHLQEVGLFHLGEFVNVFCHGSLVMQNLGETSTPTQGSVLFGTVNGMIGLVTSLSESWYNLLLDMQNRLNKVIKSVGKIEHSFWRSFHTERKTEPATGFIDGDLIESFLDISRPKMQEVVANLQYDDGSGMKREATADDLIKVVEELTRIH
T1 sequence (Q96SW2 whole entry): as the sequence (Q96SW2 whole entry) above
T1 sequence (Q16531 whole entry partner): as the sequence (Q16531 whole entry partner) above

SMILES: O=C1CCC(N2Cc3c(CNC(=O)c4ccc(F)cc4)cccc3C2=O)C(=O)N1 (stereo not drawn) [SJ7095]
- CRBN binding FP, Activity ([1]; SJ7095, [Compound] 0.00309 mM): 8.11 and 10.4932 and 6.274
- CRBN binding FP, Activity ([1]; SJ7095, [Compound] 0.02781 mM): 14.0709 and 18.2061 and 13.5714
- CRBN binding FP, Activity ([1]; SJ7095, [Compound] 0.08344 mM): 25.188 and 27.6328 and 27.8185
- CRBN binding FP, Activity ([1]; SJ7095, [Compound] 0.25033 mM): 29.8604 and 33.1175 and 27.1236
- CRBN binding FP, Activity ([1]; SJ7095, [Compound] 0.75100 mM): 30.8271 and 30.718 and 33.0309
- CRBN binding FP, Activity ([1]; SJ7095, [Compound] 2.25301 mM): 46.2943 and 45.8008 and 46.583
- CRBN binding FP, Activity ([1]; SJ7095, [Compound] 6.75903 mM): 54.5113 and 62.5976 and 51.6216
- CRBN binding FP, Activity ([1]; SJ7095, [Compound] 20.27708 mM): 59.0226 and 67.7395 and 53.7066
- Treatment-induced cell death (annexin-V) ([2]; 1 μM, 72 h, vs DMSO): increased cell death
- total apoptosis, flow cytometry ([2]; SI_Fig 4c, DMSO 9.7, 8.6, 9.8): 14.9 and 14.2 and 11
- total apoptosis, flow cytometry ([2]; SI_Fig 5c, DMSO 8, 7.6, 6.1): 18.3 and 22.4 and 27.2
- Late apoptosis, flow cytometry ([2]; SI_Fig 4b, DMSO 3, 2.7, 3): 4.8 and 4.2 and 3.7
- Early apoptosis, flow cytometry ([2]; SI_Fig 4b, DMSO 6.8, 5.8, 6.8): 10.1 and 7.2
- Late apoptosis, flow cytometry ([2]; SI_Fig 5b, DMSO 1.5, 1.2, 1.2): 4.9 and 6.3 and 8.6
- Early apoptosis, flow cytometry ([2]; SI_Fig 5b, DMSO 6.5, 6.4, 4.9): 13.4 and 16.1 and 18.6
- IKZF1 Percent Maximum Degradation ([3]; 0.111 uM): 51.56% and 53.98% and 57.51%
- IKZF1 Percent Maximum Degradation ([3]; 0.333 uM): 65.57% and 67.60% and 69.65%
- IKZF1 Percent Maximum Degradation ([3]; 1 uM): 74.04% and 75.26% and 77.24%
- IKZF1 Percent Maximum Degradation ([3]; 3 uM): 79.22% and 78.05% and 80.15%
- IKZF1 Percent Maximum Degradation ([3]; 10 uM, replicates): 80.57% and 81.85% and 92.17%
- Dmax at 0.111 µM ([3]; Jurkat, 0.111 uM, read-out: IKZF1 Percent Maximum Degradation): 51.7%
- Dmax at 0.333 µM ([3]; Jurkat, 0.333 uM, read-out: IKZF1 Percent Maximum Degradation): 64.8%
- Dmax at 1 µM ([3]; Jurkat, 1 uM, read-out: IKZF1 Percent Maximum Degradation): 73.8%
- Dmax at 3 µM ([3]; Jurkat, 3 uM, read-out: IKZF1 Percent Maximum Degradation): 78.4%
- Dmax at 10 µM ([3]; Jurkat, 10 uM, replicates, read-out: IKZF1 Percent Maximum Degradation): 80%
- DC50 ([3]; Jurkat, at 4 h): 0.069 µM
- Effect on viability of CRBN−/− cells (annexin-V) ([4]; 1 μM): no effect on the viability
- Late apoptosis, flow cytometry ([4]; SI_Fig 4b, DMSO 3.1, 3.5, 3.3): 2.7 and 3 and 3.2
- Early apoptosis, flow cytometry ([4]; SI_Fig 4b, DMSO 7.1, 7.5, 7.8): 6.9 and 8.1 and 7
- Late apoptosis, flow cytometry ([4]; SI_Fig 5b, DMSO 1.3, 1.9, 2): 1.7 and 2.1 and 1.9
- Early apoptosis, flow cytometry ([4]; SI_Fig 5b, DMSO 4.6, 5.9, 7.6): 6.5 and 6.7 and 7.2
- total apoptosis, flow cytometry ([4]; SI_Fig 4c, DMSO 10.2, 11.1, 11.2): 9.6 and 11.1 and 10.2
- total apoptosis, flow cytometry ([4]; SI_Fig 5c, DMSO 5.8, 7.8, 9.6): 8.2 and 8.8 and 9.1
